Data: article PMC5473904, “Epigenetic and antitumor effects of platinum(IV)-octanoato conjugates” (Scientific Reports, 2017)

Experiments:
[1] = test system: Lewis lung carcinoma (LLC); test: In vivo antitumor activity in Lewis lung carcinoma; conditions: LLC in C57BL mice; for Average tumor weight (mean ± SD): 20 mg kg^−1 daily orally day 7–14, day 15; for Inhibition of tumor growth: 20 mg kg^−1 daily orally day 7–14, day 15, referred to control animals
Protocol: Xenograft LLC tumors were grown in C57BL mice that were subsequently treated with […] of either Pt(IV) complex. Pt(IV) prodrugs were administered by oral gavage by taking advantage of their excellent stability, enabling in vivo oral formulation making platinum therapy safer lessening side effects and partially overcoming resistance to platinum(II) drugs, [35]. The schedule of Pt(IV) prodrug administration in vivo was initially determined by assessing the total dose that could be injected without undue toxicity in nontumor-bearing C57BL mice. From day 7 after tumor inoculation, when tumors became visible, tumor-bearing mice received daily doses of the Pt(IV) derivatives (20 mg kg^−1, by oral gavage).
The LLC cell line was purchased from ECACC, United Kingdom. The LLC cell line was maintained in DMEM (Euroclone) supplemented with 10% heat-inactivated fetal bovine serum (FBS; Euroclone), 10 mM L-glutamine, 100 U mL^−1 penicillin, and 100 μg mL^−1 streptomycin in a 5% CO2 air incubator at 37 °C. The LLC was implanted intramuscularly (im) as a 2 × 10^6 cell inoculum into the right hind leg of 8-week old male and female C57BL mice (24 ± 3 g body weight). […] At day 15, animals were sacrificed, the legs were amputated at the proximal end of the femur, and the inhibition of tumor growth was determined according to the difference in weight of the tumor-bearing leg, and the healthy leg of the animals expressed as a percentage referred to the control animals. Body weight was measured every two days and was taken as a parameter for systemic toxicity. All the values are the means ± SD of not less than three measurements.

[2] = Biodistribution of platinum after oral administration (ICP-MS); assay type: in vivo, C57BL mice; conditions: LLC-bearing mice; for Percentage of the administered drug reaching the tumor mass / Tissue platinum distribution: single oral dose 20 mg kg-1, 4 h; for Platinum concentration in blood: whole blood, single oral dose 20 mg kg-1, 1 and 4 h
Source text: It was previously shown for a similar series of dicarboxylato Pt(IV) compounds that organic chains of intermediate length offer the best compromise between lipophilicity and water solubility for oral administration. […] The details of these experiments and their results are described in the Supplementary material and Supplementary Fig. S2. […] In contrast, platinum scarcely accumulated in intestine and lung. Noteworthy, a slightly higher platinum content was found in the tumor mass in the mice treated with Pt(IV)diOA than in those treated with Pt(IV)diVPA. […]
Biodistribution after oral administration
For Pt(IV) complexes having axial carboxylato ligands, the lipophilicity increases as the number of carbon atoms in the chain increases. This lipophilicity increase offers a beneficial effect on the cellular accumulation and in vitro cytotoxic potency up to a point where the drop in water solubility impedes the administration of the drugs (around C8-C10 carbon chains)1,2.
Moreover, excessive lipophilicity can hinder transport of such Pt(IV) derivatives in vivo across intestinal epithelial cells making them more vulnerable to hepatic metabolism.
It was previously shown for a similar series of dicarboxylato Pt(IV) compounds (except the VPA-derivative) that organic chains of intermediate length offer the best compromise between lipophilicity and water solubility for oral administration3. To better understand the biodistribution properties of the Pt(IV) complexes, following administered by oral gavage in a -1 single dose (20 mg kg ), tissue samples collected from LLC-bearing mice were analyzed by ICP-MS. After 1 and 4 h, blood samples were collected and subsequently animals were sacrificed, and tissue samples were collected. The platinum levels in tumor, kidney, liver, intestine, lung and whole blood aliquots are shown in Fig. S2, panels A and B. It is important to recall that using this protocol it is possible to estimate only the overall Pt content and not its oxidation state or speciation [i.e. Pt(IV) metabolites or Pt(II) metabolites produced by reduction and further interactions]. […]
Biodistribution after oral administration. For in vivo kinetic experiments, 8-10 week old C57BL mice (24 ± 3 g body weight) received the drugs as an oral gavage single dose of -1 butanoato, hexanoato, octanoato and valproate Pt(IV) complexes (20 mg kg , dissolved in a vehicle solution composed of 20% Cremophor EL (v/v), 20% PEG400 (v/v) and 60% saline solution (v/v)). At each time point (1 and 4 h, respectively), animals were anesthetized, and blood was collected by a vain tail puncture. In addition, samples of organs (kidney, liver, lung and intestine) and tumor were collected at 4 h and stored at −20 °C. Blood, organ samples and tumor were subjected to quantitative determination of platinum content.−1 The samples were treated with highly pure nitric acid ([Pt] ≤ 0.01 μg kg TraceSELECT Ultra, Sigma Chemical Co.) and transferred into a microwave Teflon vessel. Subsequently, samples were submitted to the standard procedure using a speed microwave. After cooling, each mineralized sample was analyzed for platinum by ICP-MS (ThermoOptek X Series 2). Instrumental settings were optimized to achieve maximum sensitivity for platinum. For quantitative determination, the most abundant isotopes of platinum and indium (used as internal standard) were measured at m/z 195 and 115, respectively.
Accumulation of platinum in tumor cells treated with Pt(IV) complexes and cisplatin (in cellulo experiments) in the absence of serum. A2780 cells were seeded in 10 mm Petri dishes and treated with the platinum complexes (10 μM) for 4 h in complete medium, i.e. + 10 % FBS (HyClone, GE Healthcare). At time zero, 100 μL of medium was taken out from each sample to check the extracellular Pt concentration. At the end of the exposure, cells were washed three times with phosphate-buffered saline (PBS), detached from the Petri dishes using 0.05% Trypsin 1X + 2% EDTA (HyClone, GE Healthcare) and harvested in fresh […]

[3] = test system: HSF human primary skin fibroblasts; test: MTT cytotoxicity, 72 h; assay type: cell-based; conditions: platinum complexes
[4] = test system: LNCaP human prostate adenocarcinoma cells; test: MTT cytotoxicity, 72 h; assay type: cell-based; conditions: platinum complexes
[5] = test system: MRC-5 (PD30) human fetal lung fibroblasts; test: MTT cytotoxicity, 72 h; assay type: cell-based; conditions: platinum complexes

Row | SMILES | Average tumor weight (mean ± SD) [1] [g] | Inhibition of tumor growth [1] [%] | Percentage of the administered drug reaching the tumor mass [2] | Tissue platinum distribution [2] | Platinum concentration in blood [2] | IC50 [3] [µM] | IC50 [4] [µM] | IC50 [5] [µM]
1 | CCCC(CCC)C(=O)[O][Pt]([NH2])([NH2])([Cl])([Cl])[O]C(=O)C(CCC)CCC [Pt(IV)diVPA, cis, cis, trans-[Pt(IV)(NH3)2Cl2(VPA)2]] | 0.174 ± 0.08 | 68 | ~10% | the highest platinum concentrations were found in liver followed by tumor tissue and kidney | around 0.5 μg Pt mL^−1 | – | – | –
2 | N.N.[Cl][Pt][Cl] [cisplatin, reference compound] | – | – | – | – | – | 69 ± 0.87 | 8.54 ± 1.78 | 10.6 ± 0.38
3 | CCCCCCCC(=O)[O][Pt]([NH2])([NH2])([Cl])([Cl])[O]C(=O)CCCCCCC [Pt(IV)diOA, cis, cis, trans-[Pt(IV)(NH3)2Cl2(OA)2]] | 0.025 ± 0.03 | 95 | about 18% | the highest platinum concentrations were found in liver followed by tumor tissue and kidney | around 0.5 μg Pt mL^−1 | 0.077 ± 0.001 | 0.052 ± 0.005 | 0.052 ± 0.003
